From US20110027846A1, “CONTROL OF BACTERIA IN FERMENTATION PROCESSES” (priority 2007, published 2011)

Assays:
bacteria = bacteria level on PCA medium after biocide contact (Comparative Example 3); format: cell-based; settings: PCT medium, 2 hours after contact; biocide concentration 50 ppm
Excerpt: (§1) A comparison is done to show the effect of four different biocides on yeast level and bacteria level in various media and at various points relative to introduction of the biocide. SDA medium is synthetic defined agar, and PCA medium is plate count agar. Dow Antimicrobial™ 7287 is a composition containing 20 percent 2,2-dibromo-3-nitrilopropionamide (DBNPA), sold by The Dow Chemical Company.

yeast = yeast level on SDA medium after biocide contact (Comparative Example 3); format: cell-based; settings: 2 hours after contact, biocide concentration 50 ppm
Excerpt: as §1

Substance: Diethyl Carbamate
- Bacteria level (bacteria): 2.6 × 10^7 cfu/ml
- Yeast level (yeast): <1.0 × 10^4 cfu/ml
